Laboratory results: patent US7906508B2, “3,4-dihydrobenzoxazine compounds and inhibitors of vanilloid receptor subtype 1 (VRI) activity” (Japan Tobacco Inc., priority 2005, dated 2011)
Like-named read-outs stand apart in the source and are kept apart here.

Tests used:
[1] = Metabolic stability test in liver S9 (Test Example [2]); format: in vitro ADME, human; settings: for Human liver S9 remaining ratio: human liver S9 2 mg protein/mL, 37° C., 60 minutes of incubation vs 0 minute
Procedure: Human liver S9 (final concentration: 2 mg protein/mL) was suspended in 100 mM potassium phosphate buffer (at pH 7.4, which contained β-nicotinamide adenine dinucleotide phosphate: 1.3 mM, D-glucose-6-phosphate: 3.3 mM, magnesium chloride: 3.3 mM and glucose-6-phosphate dehydrogenase: 0.45 U/mL) and further mixed with the test compound dissolved in DMSO. The mixture was incubated at 37° C. for 0 and 60 minutes and then supplemented with acetonitrile containing formic acid (final concentration 0.1%). The test compound (uncharged) in a supernatant after centrifugation was measured using high-performance liquid chromatography/mass spectrometry (LC/MS). A remaining ratio (%) was calculated from the obtained measurement value according to the following equation: Remaining ratio (%)=(amount of test compound after 60 minutes of incubation/amount of test compound on 0 minute of incubation)×100

[2] = system: Caco2 cells; experiment: In-vitro membrane permeability test (Test Example [3]); format: in vitro ADME; settings: summary judgement
Procedure: (§1) 10 mM DMSO solution of the test compound was diluted with Hanks buffer (pH 6.5) to 25 μM to make a test compound solution. 300 μL of Apical buffer (Hanks buffer (pH 6.5)) and 1 mL of Basolateral buffer (4.5% BSA-containing Hanks buffer (pH 7.4)) were added to the apical side (mucosal side) and the basolateral side (serosal side), respectively, of Caco2 cells (cells cultured for 6 days after seeding) seeded onto a plate for permeability test (BIOCOAT HTS Caco2 Assay system: BD Biosciences), and preincubated at 37° C. for 20 minutes, followed by measurement of a transepithelial electrical resistance value. Each buffer on the apical side and basolateral side was removed by aspiration. Then, 300 μL of the test compound solution and 1 mL of Basolateral buffer were added to the apical side and the basolateral side, respectively, and incubated at 37° C. for 2 hours with stirring at 60 rpm. Then, sampling was performed from each of the apical side and the basolateral side, and the sample was supplemented with acetonitrile and centrifuged. The test compound (uncharged) in the supernatant was measured using high-performance liquid chromatography/tandem mass spectrometry (LC/MS/MS: Quantum, Thermo Quest).
(§2) A membrane permeability coefficient (Papp) was calculated according to the following equation: Papp(cm/sec.)=(dx/dt)/(A×C0)
(§3) (wherein dx is the amount of the test compound (uncharged) on the basolateral side after incubation, dt is an incubation time, A is the surface area of the cell membrane, and C0 is the initial concentration of the test compound on the apical side.)

[3] = as above; format: in vitro ADME; settings: human, Caco-2, Caco2 cells, 2 hours
Procedure: as §1, §2, §3

[4] = molecular target: T1, human VR1 (Homo sapiens, UniProt Q8NER1); experiment: Inhibition of Ca2+ entry in cells caused by proton (Test Example [1]); format: cell-based; settings: for IC50: rat glioma (C6BU1) cells stably expressing human VR1, proton stimulation, pH 5.7, Ca2+ uptake, Fura 2-AM, read-out: VRI Inhibition IC50
T1 construct: expressed in transfected cells
T1 sequence (Q8NER1 whole entry): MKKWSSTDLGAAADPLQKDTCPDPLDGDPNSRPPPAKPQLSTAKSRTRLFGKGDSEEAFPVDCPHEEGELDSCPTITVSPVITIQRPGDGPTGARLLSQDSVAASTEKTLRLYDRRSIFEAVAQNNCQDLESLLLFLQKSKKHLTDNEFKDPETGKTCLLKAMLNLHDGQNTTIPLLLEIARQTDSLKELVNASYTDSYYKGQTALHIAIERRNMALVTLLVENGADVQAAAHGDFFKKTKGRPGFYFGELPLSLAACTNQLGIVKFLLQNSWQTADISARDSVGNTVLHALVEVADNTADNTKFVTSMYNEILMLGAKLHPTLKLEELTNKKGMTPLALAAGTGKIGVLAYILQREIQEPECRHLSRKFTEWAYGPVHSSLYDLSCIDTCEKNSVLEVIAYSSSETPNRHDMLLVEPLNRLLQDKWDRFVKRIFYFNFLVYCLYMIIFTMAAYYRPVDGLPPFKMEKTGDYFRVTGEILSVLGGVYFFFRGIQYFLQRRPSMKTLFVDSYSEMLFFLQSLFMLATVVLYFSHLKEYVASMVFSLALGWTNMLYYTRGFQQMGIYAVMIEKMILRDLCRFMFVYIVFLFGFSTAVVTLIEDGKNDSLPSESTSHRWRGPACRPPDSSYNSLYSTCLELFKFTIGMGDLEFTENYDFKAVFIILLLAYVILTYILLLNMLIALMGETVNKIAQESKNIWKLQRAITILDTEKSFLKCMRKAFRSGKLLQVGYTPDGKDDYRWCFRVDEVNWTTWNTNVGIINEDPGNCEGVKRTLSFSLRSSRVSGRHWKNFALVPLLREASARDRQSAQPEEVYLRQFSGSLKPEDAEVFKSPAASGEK
Procedure: An inhibitory effect on VR1 activity was evaluated by measuring Ca^2+ uptake in cells.
Rat glioma (C6BU1) cells stably expressing human VR1 were suspended in 20 mM MES buffer (at pH 6.8, contg. 20 mM 2-morpholinoethanesulfonate (referred to as MES hereinafter), 115 mM NaCl, 5 mM KCl, 1 mM MgCl2 and 14 mM D-glucose) to make a cell density of 1×10^6 cells/mL. A fluorescent dye, Fura 2-AM solution (Dojindo Corporate, Cat. No. 343-05401) was added to the suspension to make a 5 μM concentration thereof. Further, Pluronic F-127 (Wako Pure Chemical Industries, Ltd., Cat. No. P6866) was added to make a 0.1% content thereof. Then, the suspension was incubated at 37° C. for 30 min. The cells were harvested and washed two times with 20 mM MES buffer. The cells were suspended again to make a cell density of 5×10^5 cells/mL. A 500-μL portion of the suspension was taken with a cuvette (MC MEDICAL, INC., Cat. No. SSR3121), to which 10 μL of 20 mM MES buffer containing 250 mM CaCl2 was added to incorporate Ca^2+ into the cells. At the same time, 5 μL of a test compound solution (in a range of 100 μM to 10 nM in DMSO) was also added to provide a final concentration thereof in a range of 1 μM to 0.1 nM. Alternatively, 5 μL of DMSO was added as control to provide a final concentration of 1% DMSO. The suspension was set in an intracellular ionometer (CAF-110; JASCO) 10 min after those additions. The cells were stimulated with protons by addition of 50 μL of 20 mM MES buffer at pH 1.1 to the suspension to set its pH at 5.7. The activity of the test compound was determined as a difference between the minimum of fluorescence intensity before agonist stimulation and its maximum after the stimulation. The value of IC50 was derived from percentage of inhibition by the test compound compared with the control.

[5] = Stability test in Japanese Pharmacopoeia 1 solution (Test Example [4]); format: physicochemical; settings: for remaining ratio in Japanese Pharmacopoeia 1 solution: CH3CN : Japanese Pharmacopoeia 1 solution 3:7, 0.05 mM, 40° C., after 8 hours vs 0 hour
Procedure: The test compound was dissolved in a mixed solution of CH3CN and Japanese Pharmacopoeia 1 solution (volume ratio 3:7) and adjusted in a vial for HPLC to a concentration of 0.05 mM. The test compound was measured by HPLC at 40° C. after 0 and 8 hours. The measurement value on 0 hour was defined as 100% to determine the remaining ratio of the test compound after 8 hours.
The “Japanese Pharmacopoeia 1 solution” here represents a solution in which 21 ml of concentrated hydrochloric acid was added to 6 g of sodium chloride and further adjusted to 3 L with distilled water.

[6] = apical (pH 6.5) to basolateral (pH 7.4, 4.5% BSA), 25 μM, 37° C., read-out: membrane permeability Papp
[7] = compared with the compound of Comparative Example 8

| Compound | Human liver S9 remaining ratio [1] [%] | membrane permeability (in words) [2] | Papp A→B at 2 h, 25 μM [3, 6] [×10⁻⁶ cm/s] | IC50 [4] [nM] | metabolic stability in human liver S9 (in words) ([1]; summary judgement) | remaining ratio in Japanese Pharmacopoeia 1 solution [5] [%] | stability in gastric juice (in words) ([5]; inferred from stability in Japanese Pharmacopoeia 1 solution) | liver S9 remaining ratio relative to Comparative Example 8 [1, 7] | Papp A→B at 2 h, 25 μM ([3]; apical to basolateral, read-out: membrane permeability in terms of the Papp values) [×10⁻⁶ cm/s] | value of IC50 relative to Comparative Example 8 [4, 7] |
| --- | --- | --- | --- | --- | --- | --- | --- | --- | --- | --- |
| Cc1ccc(N2c3cccc(C(=O)Nc4ccc(C(F)(F)F)nc4)c3OC[C@@H]2CO)nc1 [Comparative Example 8] | 62.9 | high membrane permeability | 43.1 | 7 | – | – | – | – | – | – |
| Cc1ccc(N2c3cccc(C(=O)Nc4ccc(OCC(F)(F)F)nc4)c3OC[C@@H]2CO)nc1 [Example 1-6, (S)-4-(5-picoline-2-yl)-3-hydroxymethyl-N-[2-(2,2,2-trifluoroethyloxy)pyridine-5-yl]-3,4-dihydro-2H-benzo[1,4]oxazine-8-carboxamide] | – | – | 37.5 | 0.15 | – | 100 | – | about 1.5 times | ≥ 30 | about 50 times |
| Cc1ccc(N2c3cccc(C(=O)Nc4cc(F)c(OCC(F)(F)F)c(F)c4)c3OC[C@@H]2CO)nc1 [Example 1-8, (S)-4-(5-picoline-2-yl)-3-hydroxymethyl-N-[3,5-difluoro-4-(2,2,2-trifluoroethoxy)phenyl]-3,4-dihydro-2H-benzo[1,4]oxazine-8-carboxamide] | – | – | 13.6 | 0.038 | – | 101 | – | – | – | – |

Further lines, results first:

| Human liver S9 remaining ratio [1] [%] | membrane permeability (in words) [2] | Papp A→B at 2 h, 25 μM [3, 6] [×10⁻⁶ cm/s] | IC50 [4] [nM] | metabolic stability in human liver S9 (in words) ([1]; summary judgement) | remaining ratio in Japanese Pharmacopoeia 1 solution [5] [%] | stability in gastric juice (in words) ([5]; inferred from stability in Japanese Pharmacopoeia 1 solution) | liver S9 remaining ratio relative to Comparative Example 8 [1, 7] | Papp A→B at 2 h, 25 μM ([3]; apical to basolateral, read-out: membrane permeability in terms of the Papp values) [×10⁻⁶ cm/s] | value of IC50 relative to Comparative Example 8 [4, 7] | Compound |
| --- | --- | --- | --- | --- | --- | --- | --- | --- | --- | --- |
| 66.7 | high membrane permeability | 40.3 | 0.36 | – | – | – | – | – | – | Cc1ccc(N2c3cccc(C(=O)Nc4ccc(OC(C)C)c(F)c4)c3OC[C@@H]2CO)nc1 [Comparative Example 11] |
| 91.3 | – | 28.6 | 0.12 | excellent metabolic stability | 62.1 | inferior stability in gastric juice | – | – | – | Cc1ccc(N2c3cccc(C(=O)Nc4ccc(OC(C)(C)C)c(F)c4)c3OC[C@@H]2CO)nc1 [Comparative Example 13] |
